Assay results reported in patent US8658661B2, “Oxadiazole inhibitors of leukotriene production” (Boehringer Ingelheim International GmbH, priority 2010, dated 2014).

Columns and labels:
ApoE−/−xCD4dnTβRII mice = conditions: via infusion, treated for four weeks; cited from earlier work
[1] = system: apoE/LDL-R double knockout mice; conditions: oral dosing, high-fat diet from 2 months of age to 6 months; cited from earlier work
human glomerulonephritis = conditions: clinical trial; cited from earlier work
[2] = system: biomarkers for myocardial infarction risk; conditions: clinical trial; cited from earlier work
[3] = target: T1, recombinant human FLAP protein (Homo sapiens, UniProt P20292); test: FLAP binding assay (SPA, displacement of [125I]L-691,831); conditions: membranes of sf9 cells expressing recombinant human FLAP; [125I]L-691,831 probe; read-out: FLAP binding IC50
T1 construct: made in house; host or cells: Sf9 insect cells (100,000×g membrane pellet used)
T1 sequence (P20292 1-161): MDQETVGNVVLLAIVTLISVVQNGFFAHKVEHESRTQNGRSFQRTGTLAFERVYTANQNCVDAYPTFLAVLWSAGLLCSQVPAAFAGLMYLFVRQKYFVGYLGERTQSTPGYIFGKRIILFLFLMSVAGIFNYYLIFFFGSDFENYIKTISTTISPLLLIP
Procedure, shortened: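 Membranes from sf9 cells expressing human FLAP in pH 7.5 Tris buffer (MgCl2, EDTA, PMSF). Non-specific binding defined with 10 μM cold L-691,831.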

[4] = system: synthesis of LTB4 in human whole blood; test: Human whole blood assay (inhibition of LTB4 synthesis, calcimycin stimulated); format: cell-based; conditions: heparinized human whole blood, calcimycin 20 μM, plasma LTB4
Procedure, shortened: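 LTB4 in plasma was quantified by HTRF immunoassay. Before that, compound-treated heparinized whole blood (15 min, 37 °C) received 20 μM final calcimycin for a further 30 min at 37 °C, followed by centrifugation at 1500×g.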

| SMILES | IC50 [3] | IC50 [4] | other results |
| --- | --- | --- | --- |
| CC(C)c1ccc2c(c1)c(SC(C)(C)C)c(CC(C)(C)C(=O)O)n2Cc1ccc(Cl)cc1 [MK-886] |  |  | decrease in plaque area in the aortic root (ApoE−/−xCD4dnTβRII mice): ~40%; decrease in plaque coverage in the aorta [1]: 56%; decrease in plaque coverage in the aortic root [1]: 43% |
| CC(C)(C)Sc1c(CC(C)(C)C(=O)O)n(Cc2ccc(Cl)cc2)c2ccc(OCc3ccc4ccccc4n3)cc12 [MK-591] |  |  | effect on proteinuria in human glomerulonephritis (human glomerulonephritis): reduce proteinuria |
| O=C(O)[C@@H](c1ccc(OCc2ccc3ccccc3n2)cc1)C1CCCC1 [DG-031] |  |  | effect on biomarkers for myocardial infarction risk [2]: dose-dependent suppression of several biomarkers |
| CC(c1ccc(-c2cnc(N)nc2)cc1)(c1noc(N2CCC(S(C)(=O)=O)CC2)n1)C1CC1 (stereo not drawn) [Example 259, 5-(4-{1-Cyclopropyl-1-[5-(4-methanesulfonyl-piperidin-1-yl)-[1,2,4]oxadiazol-3-yl]-ethyl}-phenyl)-pyrimidin-2-ylamine] | 16 nM | 270 nM |  |
| Cn1cc(-c2nc([C@@H](c3ccc(-c4cnc(N)nc4)cc3)C(C)(C)C)no2)cn1 [Example 65, 5-(4-{(1R)-2,2-dimethyl-1-[5-(1-methyl-1H-pyrazol-4-yl)-1,2,4-oxadiazol-3-yl]propyl}phenyl)pyrimidin-2-amine] | 75 nM | 1500 nM |  |
| CNC1CCN(c2nc(C(C)(c3ccc(-c4cnc(N)nc4)cc3)C(C)C)no2)CC1 (stereo not drawn) [Example 217, 5-(4-{1,2-Dimethyl-1-[5-(4-methylamino-piperidin-1-yl)-[1,2,4]oxadiazol-3-yl]-propyl}-phenyl)-pyrimidin-2-ylamine] | 90 nM | 1200 nM |  |
| Cn1cc(-c2nc([C@@](C)(c3ccc(-c4ccc(N)nc4)cc3)C3CC3)no2)cn1 [Example 181, 5-(4-{(R)-1-Cyclopropyl-1-[5-(1-methyl-1H-pyrazol-4-yl)-[1,2,4]oxadiazol-3-yl]-ethyl}-phenyl)-pyridin-2-ylamine] | 3.3 nM | 51 nM |  |
| COCCc1nc(C(C)(c2ccc(-c3cnc(N)nc3)cc2)C(C)C)no1 (stereo not drawn) [Example 232, 5-(4-{1-[5-(2-Methoxy-ethyl)-[1,2,4]oxadiazol-3-yl]-1,2-dimethyl-propyl}-phenyl)-pyrimidin-2-ylamine] | 37 nM | 370 nM |  |
| COCCn1cc(-c2nc(C(C)(c3ccc(-c4cnc(N)nc4)cc3)C(C)C)no2)cn1 (stereo not drawn) [Example 158, 5-[4-(2-{5-[1-(2-methoxyethyl)-1H-pyrazol-4-yl]-1,2,4-oxadiazol-3-yl}-3-methylbutan-2-yl)phenyl]pyrimidin-2-amine] | 3.4 nM | 55 nM |  |
| CC(C)C(C)(c1ccc(-c2cnc(N)nc2)cc1)c1noc(C2CCCC(=O)N2C)n1 (stereo not drawn) [Example 166, 6-(3-{2-[4-(2-aminopyrimidin-5-yl)phenyl]-3-methylbutan-2-yl}-1,2,4-oxadiazol-5-yl)-1-methylpiperidin-2-one] | 26 nM | 2400 nM |  |
| CC(c1ccc(-c2cnc(N)nc2)cc1)(c1noc(N2CCC[C@@H](O)C2)n1)C1CC1 (stereo partly drawn) [Example 287, (R)-1-(3-{1-[4-(2-Amino-pyrimidin-5-yl)-phenyl]-1-cyclopropyl-ethyl}-[1,2,4]oxadiazol-5-yl)-piperidin-3-ol] | 7 nM | 150 nM |  |
| CN(C)C(=O)Cn1cc(-c2nc([C@](C)(c3ccc(-c4cnc(N)nc4)cc3)C3CC3)no2)cn1 (single isomer, unassigned) [Example 116] | 150 nM | 2000 nM |  |
| C[C@@](c1ccc(-c2cnc(N)cn2)cc1)(c1noc(-c2cnn(C3COC3)c2)n1)C1CC1 [Example 265, 5-(4-{(R)-1-Cyclopropyl-1-[5-(1-oxetan-3-yl-1H-pyrazol-4-yl)-[1,2,4]oxadiazol-3-yl]-ethyl}-phenyl)-pyrazin-2-ylamine; compound with trifluoro-acetic acid] | 5.1 nM | 22 nM |  |
| Cn1cc(-c2nc([C@@](C)(c3ccc(-c4cnc(N)cn4)cc3)C3CC3)no2)cn1 [Example 184, 5-(4-{(R)-1-Cyclopropyl-1-[5-(1-methyl-1H-pyrazol-4-yl)-[1,2,4]oxadiazol-3-yl]-ethyl}-phenyl)-pyrazin-2-ylamine] | 2 nM | 23 nM |  |
